The target of assay [1] is T1, recombinant human enzyme CK-1δ (Homo sapiens, UniProt P48730).
T1 construct: purchased Millipore Iberica SAU
The assay can be described thus: Enzyme inhibition assay, Luminometer Kinase-GLO method, CK-1δ. In kind it is biochemical. Conditions: for IC50: casein substrate, 4 μM ATP, 60 minutes at 30° C., read-out: Inhibitory Concentration 50 (IC50) CK-1δ. The procedure: (§1) Enzyme inhibition assays were performed using the Luminometer Kinase-GLO® method. Recombinant human enzyme CK-1δ was purchased from Millipore Iberica SAU and recombinant human enzyme CK-1ε was purchased from Invitrogen. The phosphorylation substration chosen was casein. The Luminescent Kinase Kit (catalogue no. V6711) was obtained from Promega. ATP and other reagents were purchased from Sigma-Aldrich (St. Louis, Mo.).
(§2) The assays were conducted in buffer using 96-well plates. In a typical assay: 10 μL of the test compound (dissolved in dimethylsulfoxide at a concentration of 1 mM and, in turn, dissolved in buffer to the required concentration for the experiment) and 10 μL (16 ng) of the CK-1δ enzyme or 10 μL (50 ng) of the CK-1ε enzyme row were added to each well followed by 20 μL of buffer containing 0.1% casein as substrate and 4 μM of ATP. The assay buffer contained: 50 mM HEPES, pH 7.5; 0.01% Brij-35; 10 mM MgCl2; 1 mM EGTA and 0.01% NaN3. […] After incubating for 60 minutes at 30° C., the enzymatic reaction was stopped using 40 μL of Kinase-GLO® reagent. Luminescence was measured after ten minutes using a FLUOstar Optima (BMG Labtechnologies GmbH, Offenburg, Germany) multimode reader. The activity was proportional to the difference between the total and consumed ATP. Inhibition activities were calculated in accordance with the maximum activity measured in the absence of inhibitor. IC50 is defined as the concentration of each compound that reduces enzyme activity by 50% with respect to that obtained without inhibitor.
On the technique in general: Kinase-Glo measures the ATP left after a reaction by luminescence.

Assay [2] has as its target T2, recombinant human enzyme CK-1ε (Homo sapiens, UniProt P49674).
T2 construct: purchased Invitrogen
The assay can be described thus: Enzyme inhibition assay, Luminometer Kinase-GLO method, CK-1ε. The format is biochemical. The following applies: for IC50: casein substrate, 4 μM ATP, 60 minutes at 30° C., read-out: Inhibitory Concentration 50 (IC50) CK-1ε. The procedure: as §1, §2

One may read the inhibition as the share of the control response that was lost under treatment.

T1 sequence (P48730 whole entry): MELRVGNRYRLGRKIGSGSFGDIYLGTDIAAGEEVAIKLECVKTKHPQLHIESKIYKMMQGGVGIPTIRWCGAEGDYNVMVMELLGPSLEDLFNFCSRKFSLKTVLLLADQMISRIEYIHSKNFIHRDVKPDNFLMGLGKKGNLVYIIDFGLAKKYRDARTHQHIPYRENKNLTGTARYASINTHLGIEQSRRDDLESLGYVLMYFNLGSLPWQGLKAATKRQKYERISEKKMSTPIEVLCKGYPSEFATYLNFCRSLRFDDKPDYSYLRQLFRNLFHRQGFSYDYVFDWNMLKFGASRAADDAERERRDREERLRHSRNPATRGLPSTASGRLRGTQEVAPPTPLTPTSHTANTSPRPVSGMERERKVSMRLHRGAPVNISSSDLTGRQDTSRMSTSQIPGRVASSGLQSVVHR
T2 sequence (P49674 whole entry): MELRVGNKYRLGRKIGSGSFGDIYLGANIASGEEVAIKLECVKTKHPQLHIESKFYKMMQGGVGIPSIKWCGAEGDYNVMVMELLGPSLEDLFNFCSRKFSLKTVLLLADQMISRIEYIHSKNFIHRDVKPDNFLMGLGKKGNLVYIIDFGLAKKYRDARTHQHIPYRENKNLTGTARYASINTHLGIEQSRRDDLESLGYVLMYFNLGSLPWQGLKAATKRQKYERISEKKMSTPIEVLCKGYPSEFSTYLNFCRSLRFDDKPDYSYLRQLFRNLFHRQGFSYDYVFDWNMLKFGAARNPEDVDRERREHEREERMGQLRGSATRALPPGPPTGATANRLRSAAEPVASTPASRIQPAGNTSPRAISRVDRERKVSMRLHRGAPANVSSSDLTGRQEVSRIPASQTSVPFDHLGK

`COc1ccc(CC(=O)Nc2nc3ccc(Cl)cc3s2)cc1` [Compound 2, N-(6-chlorobenzothiazole-2-yl)-2-(4-methoxyphenyl)acetamide]: the IC50 in assay [1] stood at 70 nM; in assay [2], 500 nM.

For `O=C(Cc1ccccc1Cl)Nc1nc2ccc(C(F)(F)F)cc2s1` [Compound 7, N-(6-trifluoromethylbenzothiazole-2-yl)-2-(2-chlorophenyl)acetamide], the IC50 in assay [1] came out at 68 nM; in assay [2], 7730 nM.

As for `O=C(Cc1ccc(Cl)c(Cl)c1)Nc1nc2ccc(C(F)(F)F)cc2s1` [Compound 9, N-(6-trifluoromethylbenzothiazole-2-yl)-2-(3,4-dichlorophenyl)acetamide], the IC50 in assay [1] was 56 nM; in assay [2], 870 nM.

With `COc1cc(CC(=O)Nc2nc3ccc(OC(F)(F)F)cc3s2)cc(OC)c1OC` [Compound 11, N-(6-trifluoromethoxybenzothiazole-2-yl)-2-(3,4,5-trimethoxyphenyl)acetamide], the results for the IC50 in assay [1] and in assay [2] were 79 nM and 940 nM, respectively.

As for `O=C(Cc1cccc(C(F)(F)F)c1)Nc1nc2ccc(C(F)(F)F)cc2s1` [Compound 13, N-(6-trifluoromethylbenzothiazole-2-yl)-2-(3-(trifluoromethyl)phenyl)acetamide], the results for the IC50 in assay [1] and in assay [2] were 87 nM and 720 nM, respectively.

As to `O=C(Nc1nc2ccc(C(F)(F)F)cc2s1)C(c1ccccc1)c1ccccc1` [Compound 15, N-(6-trifluoromethylbenzothiazole-2-yl)-2,2-diphenylacetamide], the values for the IC50 in assay [1] and in assay [2] were 260 nM and 2750 nM, respectively.

As for `COc1ccc2nc(NC(=O)C(c3ccccc3)c3ccccc3)sc2c1` [Compound 16, N-(6-methoxybenzothiazole-2-yl)-2,2-diphenylacetamide], the figures for the IC50 in assay [1] and in assay [2] were 840 nM and 5070 nM, respectively.

As for `O=C(CCc1ccccc1)Nc1nc2ccc([N+](=O)[O-])cc2s1` [Compound 17, N-(6-nitrobenzothiazole-2-yl)-3-phenylpropanamide], the values for the IC50 in assay [1] and in assay [2] were 570 nM and 9400 nM, respectively.

With `O=C(Cc1ccc(F)cc1)Nc1nc2ccccc2s1` [Compound 18, N-(benzothiazole-2-yl)-2-(4-fluorophenyl)acetamide], the IC50 in assay [1] came out at 530 nM; in assay [2], 3080 nM.

In the case of `COc1ccc(CC(=O)Nc2nc3ccc(OC)cc3s2)cc1` [Compound 19, N-(6-methoxybenzothiazole-2-yl)-2-(4-methoxyphenyl)acetamide], the IC50 in assay [1] was determined as 570 nM; in assay [2], 2410 nM.

For the molecule `COc1ccc2nc(NC(=O)Cc3ccc(Cl)cc3)sc2c1` [Compound 21, N-(6-methoxybenzothiazole-2-yl)-2-(4-chlorophenyl)acetamide], the IC50 came out at 750 nM in assay [1] and 8750 nM in assay [2].

In the case of `COc1ccc2nc(NC(=O)Cc3cccc(Cl)c3)sc2c1` [Compound 22, N-(6-methoxybenzothiazole-2-yl)-2-(3-chlorophenyl)acetamide], the IC50 in assay [1] was 530 nM; in assay [2], 3730 nM.

Take `O=C(Cc1cccc(Cl)c1)Nc1nc2ccc(OC(F)(F)F)cc2s1` [Compound 23, N-(6-trifluoromethoxybenzothiazole-2-yl)-2-(3-chlorophenyl)acetamide]: the IC50 in assay [1] was found to be 540 nM; in assay [2], 1020 nM.

In the case of `O=C(Nc1cccc(Cl)c1)Nc1nc2ccc(C(F)(F)F)cc2s1` [Compound 24, N-(6-trifluoromethylbenzothiazole-2-yl)-N′-(3-chlorophenyl)urea], the IC50 in assay [1] was determined as 740 nM; in assay [2] it was 11000 nM.

Regarding `COc1cccc(CC(=O)Nc2nc3ccc(OC)cc3s2)c1` [Compound 25, N-(6-methoxybenzothiazole-2-yl)-2-(3-methoxyphenyl)acetamide], the results for the IC50 in assay [1] and in assay [2] were 420 nM and 2430 nM, respectively.

Consider `CCOc1ccc2nc(NC(=O)Cc3cccc(OC)c3)sc2c1` [Compound 26, N-(6-ethoxybenzothiazole-2-yl)-2-(3-methoxyphenyl)acetamide], for which the IC50 was 990 nM in assay [1] and 8970 nM in assay [2].

As for `COc1ccccc1CC(=O)Nc1nc2ccc(OC(F)(F)F)cc2s1` [Compound 27, N-(6-trifluoromethoxybenzothiazole-2-yl)-2-(2-methoxyphenyl)acetamide], the results for the IC50 in assay [1] and in assay [2] were 620 nM and 7390 nM, respectively.

As for `O=C(Cc1ccc(Cl)c(Cl)c1)Nc1nc2ccc(OC(F)(F)F)cc2s1` [Compound 28, N-(6-trifluoromethoxybenzothiazole-2-yl)-2-(3,4-dichlorophenyl)acetamide], the IC50 in assay [1] came out at 590 nM; in assay [2] it was 930 nM.

For the molecule `COc1ccc(OC)c(CC(=O)Nc2nc3ccc(C(F)(F)F)cc3s2)c1` [Compound 29, N-(6-trifluoromethylbenzothiazole-2-yl)-2-(2,5-dimethoxyphenyl)acetamide], the IC50 is 190 nM in assay [1] and 3140 nM in assay [2].

For the molecule `COc1ccccc1CC(=O)Nc1nc2ccc(Cl)cc2s1` [Compound 31, N-(6-chlorobenzothiazole-2-yl)-2-(2-methoxyphenyl)acetamide], the IC50 in assay [1] was found to be 320 nM; in assay [2], 1150 nM.

`COc1ccccc1CC(=O)Nc1nc2ccc(Br)cc2s1` [Compound 32, N-(6-bromobenzothiazole-2-yl)-2-(2-methoxyphenyl)acetamide]: the IC50 in assay [1] turned out to be 260 nM; in assay [2], 1030 nM.

For the molecule `O=C(Nc1nc2ccccc2s1)C(c1ccccc1)c1ccccc1` [Compound 33, N-(benzothiazole-2-yl)-2,2-diphenylacetamide], the IC50 in assay [1] came to 1960 nM; in assay [2], 7310 nM.

`O=C(CC(c1ccccc1)c1ccccc1)Nc1nc2ccccc2s1` [Compound 34, N-(benzothiazole-2-yl)-3,3-diphenylpropanamide]: the IC50 in assay [1] stood at 2500 nM; in assay [2] it was 9730 nM.

Consider `O=C(COCc1ccccc1)Nc1nc2ccccc2s1` [Compound 35, N-(benzothiazole-2-yl)-2-benzyloxyacetamide], for which the IC50 in assay [1] came out at 4370 nM. For the same molecule, in assay [2], the inhibition at 10 µM was found to be 48%.

For `O=C(CNC(=O)c1ccccc1)Nc1nc2ccccc2s1` [Compound 36, N-[2-(benzothiazole-2-ylamine)-2-oxoethyl]benzamide], the IC50 in assay [1] was found to be 7290 nM. In assay [2], the inhibition at 10 µM is 48%.

With `O=C(CNC(=O)C(c1ccccc1)c1ccccc1)Nc1nc2ccccc2s1` [Compound 37, N-(benzothiazole-2-yl)-2-(2,2-diphenylacetamide)acetamide], the IC50 was 1930 nM in assay [1] and 13000 nM in assay [2].

Turning to `O=C(Cc1ccccc1)NCC(=O)Nc1nc2ccccc2s1` [Compound 38, N-(benzothiazole-2-yl)-2-(2-phenylacetamide)acetamide], the IC50 in assay [1] is 6330 nM. Also, the inhibition at 10 µM in assay [2] stood at 37%.

For the molecule `CCOc1ccc2nc(NC(=O)C(c3ccccc3)c3ccccc3)sc2c1` [Compound 39, N-(6-ethoxybenzothiazole-2-yl)-2,2-diphenylacetamide], the IC50 is 2820 nM in assay [1] and 7860 nM in assay [2].

`CCOC(=O)c1ccc2nc(NC(=O)C(c3ccccc3)c3ccccc3)sc2c1` [Compound 40, Carboxylate[2-(2,2-diphenylacetamide)benzothiazole-6-yl]ethyl]: the IC50 in assay [1] was 6680 nM; in assay [2], 1600 nM.

Consider `NS(=O)(=O)c1ccc2nc(NC(=O)C(c3ccccc3)c3ccccc3)sc2c1` [Compound 41, N-(6-sulfamoylbenzothiazole-2-yl)-2,2-diphenylacetamide], for which the inhibition at 10 µM in assay [1] and in assay [2] was 10% in each case.

Turning to `CCNS(=O)(=O)c1ccc2nc(NC(=O)C(c3ccccc3)c3ccccc3)sc2c1` [Compound 42, N-(6-(N-ethylsulfamoyl)benzothiazole-2-yl)-2,2-diphenylacetamide], the inhibition at 10 µM in assay [1] and in assay [2] was 10% each time.

In the case of `CCCCNS(=O)(=O)c1ccc2nc(NC(=O)C(c3ccccc3)c3ccccc3)sc2c1` [Compound 43, N-(6-(N-butylsulfamoyl)benzothiazole-2-yl)-2,2-diphenylacetamide], the inhibition at 10 µM in assay [1] and in assay [2] was 10% in each case.

Regarding `CCN(CC)S(=O)(=O)c1ccc2nc(NC(=O)C(c3ccccc3)c3ccccc3)sc2c1` [Compound 44, N-(6-(N,N-diethylsulfamoyl)benzothiazole-2-yl)-2,2-diphenylacetamide], the IC50 turned out to be 9830 nM in assay [1] and 3470 nM in assay [2].

For the molecule `CCOc1ccc2nc(NC(=O)Cc3ccc(OC)cc3)sc2c1` [Compound 45, N-(6-ethoxybenzothiazole-2-yl)-2-(4-methoxyphenyl)acetamide], the IC50 in assay [1] worked out at 1090 nM; in assay [2], 9490 nM.

In the case of `COc1ccc(NC(=O)Nc2nc3ccc(C(F)(F)F)cc3s2)cc1` [Compound 46, N-(6-trifluoromethylbenzothiazole-2-yl)-N′-(4-methoxyphenyl)urea], the IC50 in assay [1] stood at 5500 nM. Besides, the inhibition at 10 µM in assay [2] was determined as 29%.

Source of the values: patent US9592224B2, “Substituted benzothiazoles and therapeutic uses thereof for the treatment of human diseases” (CONSEJO SUPERIOR DE INVESTIGACIONES CIENTÍFICAS, priority 2013, dated 2017).
